Assays:
[1] = tested on: MIAPaCa-2; assay: Reverse Phase Protein Analysis (RPPA); type: cell-based; conditions: MIAPaca2; % change from DMSO (matched cell line)
[2] = tested on: A375, MIAPaCa-2, HCT116, Colo205, HT-29, and AN3Ca cells; assay: Reverse Phase Protein Analysis (RPPA), all six cell lines; type: cell-based; conditions: 10 μM, 6 hours
Description: Control wells were treated with DMSO at 0.1% (v/v) for 6 hours prior to cell lysate generation. Samples were then analyzed using reverse-phase protein microarray technology (Theranostics Health).
Cell lines with common alterations in BRAF and RAS were assayed: BRAF^V600E mutant lines A375, Colo205, and HT29; KRAS^G12C-mutant cell line MIAPACa-2; KRAS^G13D-mutant cell line HCT116; and AN3Ca with atypical HRAS^F82L mutation. Changes in protein levels are shown as a percentage change from dimethyl sulfoxide (DMSO)-treated parental control (FIG. 32A and Table 23).

[3] = tested on: Colo205; assay: Reverse Phase Protein Analysis (RPPA); type: cell-based, human; conditions: % change from DMSO (matched cell line)
[4] = tested on: AN3Ca; assay: Reverse Phase Protein Analysis (RPPA); type: cell-based; conditions: % change from DMSO (matched cell line)
Procedure, shortened: (§1)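 Cells were treated 6 h before lysis, with 0.1% (v/v) DMSO as control. Lysates were analysed by reverse-phase protein microarray. Protein changes are expressed as percentage change from DMSO-treated parental cells.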

[5] = tested on: HT29; assay: Reverse Phase Protein Analysis (RPPA); type: cell-based; conditions: % change from DMSO (matched cell line)
Procedure, shortened: as §1

Structure (SMILES): Cn1nccc1Nc1nccc(-c2ccn([C@H](CO)c3ccc(Cl)c(F)c3)c(=O)c2)n1 [GDC-0994]
- Avg (4ebp1 T70) [1]: −34.01%
- Avg (Akt S473) [1]: 2.24%
- Avg (Akt) [1]: 4.33%
- Avg (Bad S136) [1]: 2.25%
- Avg (Bad S155) [1]: 8.18%
- Avg (Bak) [1]: −8.11%
- Avg (Bax) [1]: 3.48%
- Avg (Bcl 2) [1]: −7.8%
- Avg (Bcl2 S70) [1]: −6.78%
- Avg (Bcl 2 T56) [1]: −2.12%
- Avg (Bim) [1]: 5.07%
- Avg (CREB S133) [1]: −21.37%
- Avg (Caspase 3 CL D175) [1]: 10.47%
- Avg (Caspase 7 Cl D198) [1]: −4.92%
- Avg (Chk1) [1]: 6.56%
- Avg (Chk1 S345) [1]: 32.96%
- Avg (Cyclin D1) [1]: −31.92%
- Avg (ERK 1 2) [1]: −6.88%
- Avg (ERK 1 2 T202 Y204) [1]: 199.59%
- Avg (MAK1 S360) [1]: −5.25%
- Avg (Mcl1) [1]: −1.79%
- Avg (Raptor S792) [1]: 2.18%
- Avg (Raptor) [1]: 22.43%
- Avg (Rictor) [1]: −11.25%
- Avg (Stat1) [1]: 7.4%
- Avg (Stat3) [1]: −9.44%
- Avg (bad S112) [1]: −10.08%
- Avg (c Fos) [1]: −16.12%
- Avg (c Myc) [1]: −7.84%
- Avg (mTOR S2448) [1]: 11.84%
- Avg (mTOR S2481) [1]: 3.65%
- Avg (mTOR) [1]: −9.8%
- Avg (p70 S6 Kinase) [1]: −3.25%
- Avg (p90 RSK S380) [1]: −39.09%
- Avg(S6 Ribo Prot S235 236) [1]: −67.9%
- Avg(S6 Ribo Prot S240 244) [1]: −75.59%
- Avg(Tuberin TSC2 Y1571) [1]: 5.71%
- Avg(p70 S6 Kinase S371 S394) [1]: −14.4%
- Avg(p70 S6 Kinase T389 T412) [1]: −40.99%
- pERK1/2 (ERK1/2-T202, -Y204) [2]: markedly increased pERK1/2
- survival marker pBAD [2]: only modest inhibition of pBAD
- Avg (4ebp1 T70) [3]: −36.69%
- Avg (Akt S473) [3]: 4.45%
- Avg (Akt) [3]: −11.83%
- Avg (Bad S136) [3]: 4%
- Avg (Bad S155) [3]: −9.11%
- Avg (Bak) [3]: 6.58%
- Avg (Bax) [3]: 8.2%
- Avg (Bcl 2) [3]: 17.95%
- Avg (Bcl2 S70) [3]: −9%
- Avg (Bcl 2 T56) [3]: −4.6%
- Avg (Bim) [3]: 20.59%
- Avg (CREB S133) [3]: −11.85%
- Avg (Caspase 3 CL D175) [3]: 23.06%
- Avg (Caspase 7 Cl D198) [3]: 1.37%
- Avg (Chk1) [3]: 5.06%
- Avg (Chk1 S345) [3]: 6.08%
- Avg (Cyclin D1) [3]: −28.02%
- Avg (ERK 1 2) [3]: −3.33%
- Avg (ERK 1 2 T202 Y204) [3]: 20.01%
- Avg (MAK1 S360) [3]: 0.82%
- Avg (Mcl1) [3]: 2.5%
- Avg (Raptor S792) [3]: −9.04%
- Avg (Raptor) [3]: −5.48%
- Avg (Rictor) [3]: −5.04%
- Avg (Stat1) [3]: 7.26%
- Avg (Stat3) [3]: −0.86%
- Avg (bad S112) [3]: −6.12%
- Avg (c Fos) [3]: −21.33%
- Avg (c Myc) [3]: −6.22%
- Avg (mTOR S2448) [3]: −7.36%
- Avg (mTOR S2481) [3]: 0.96%
- Avg (mTOR) [3]: 3.39%
- Avg (p70 S6 Kinase) [3]: 5.83%
- Avg (p90 RSK S380) [3]: −57.5%
- Avg(S6 Ribo Prot S235 236) [3]: −91.19%
- Avg(S6 Ribo Prot S240 244) [3]: −91.59%
- Avg(Tuberin TSC2 Y1571) [3]: 0.66%
- Avg(p70 S6 Kinase S371 S394) [3]: −13.02%
- Avg(p70 S6 Kinase T389 T412) [3]: −32.2%
- Avg (4ebp1 T70) [4]: 11.28%
- Avg (Akt S473) [4]: 82.37%
- Avg (Akt) [4]: −26.04%
- Avg (Bad S136) [4]: 0.71%
- Avg (Bad S155) [4]: 17.31%
- Avg (Bak) [4]: 7.33%
- Avg (Bax) [4]: 23.83%
- Avg (Bcl 2) [4]: 7.8%
- Avg (Bcl2 S70) [4]: −0.65%
- Avg (Bcl 2 T56) [4]: 1.23%
- Avg (Bim) [4]: −11.63%
- Avg (CREB S133) [4]: 5.03%
- Avg (Caspase 3 CL D175) [4]: 1.55%
- Avg (Caspase 7 Cl D198) [4]: −15.56%
- Avg (Chk1) [4]: 9.43%
- Avg (Chk1 S345) [4]: 15.46%
- Avg (Cyclin D1) [4]: 0.34%
- Avg (ERK 1 2) [4]: −2.87%
- Avg (ERK 1 2 T202 Y204) [4]: 645.51%
- Avg (MAK1 S360) [4]: 6.84%
- Avg (Mcl1) [4]: −4.16%
- Avg (Raptor S792) [4]: 4.85%
- Avg (Raptor) [4]: −8.05%
- Avg (Rictor) [4]: −9.21%
- Avg (Stat1) [4]: 9.15%
- Avg (Stat3) [4]: −13.05%
- Avg (bad S112) [4]: 2.53%
- Avg (c Fos) [4]: −0.63%
- Avg (c Myc) [4]: 3.99%
- Avg (mTOR S2448) [4]: −2.96%
- Avg (mTOR S2481) [4]: 25.42%
- Avg (mTOR) [4]: −2.85%
- Avg (p70 S6 Kinase) [4]: −3.67%
- Avg (p90 RSK S380) [4]: −29.44%
- Avg(S6 Ribo Prot S235 236) [4]: −30.74%
- Avg(S6 Ribo Prot S240 244) [4]: −23.47%
- Avg(Tuberin TSC2 Y1571) [4]: 25.18%
- Avg(p70 S6 Kinase S371 S394) [4]: 29.09%
- Avg(p70 S6 Kinase T389 T412) [4]: 26.01%
- Avg (4ebp1 T70) [5]: 1.95%
- Avg (Akt S473) [5]: −10.5%
- Avg (Akt) [5]: −10.01%
- Avg (Bad S136) [5]: 2%
- Avg (Bad S155) [5]: −6.7%
- Avg (Bak) [5]: 3.56%
- Avg (Bax) [5]: 1.1%
- Avg (Bcl 2) [5]: 18.16%
- Avg (Bcl2 S70) [5]: 10.59%
- Avg (Bcl 2 T56) [5]: 1.61%
- Avg (Bim) [5]: 7.74%
- Avg (CREB S133) [5]: 9.54%
- Avg (Caspase 3 CL D175) [5]: −3.44%
- Avg (Caspase 7 Cl D198) [5]: −0.88%
- Avg (Chk1) [5]: 5.68%
- Avg (Chk1 S345) [5]: 6.88%
- Avg (Cyclin D1) [5]: −35.69%
- Avg (ERK 1 2) [5]: 4.66%
- Avg (ERK 1 2 T202 Y204) [5]: 268.99%
- Avg (MAK1 S360) [5]: −0.04%
- Avg (Mcl1) [5]: 3.71%
- Avg (Raptor S792) [5]: −1.75%
- Avg (Raptor) [5]: −6.85%
- Avg (Rictor) [5]: −10.62%
- Avg (Stat1) [5]: 2.58%
- Avg (Stat3) [5]: −3.69%
- Avg (bad S112) [5]: −12.98%
- Avg (c Fos) [5]: −12.92%
- Avg (c Myc) [5]: 7.56%
- Avg (mTOR S2448) [5]: −11.44%
- Avg (mTOR S2481) [5]: 3.23%
- Avg (mTOR) [5]: 10.45%
- Avg (p70 S6 Kinase) [5]: −2.83%
- Avg (p90 RSK S380) [5]: −30.59%
- Avg(S6 Ribo Prot S235 236) [5]: −41.45%
- Avg(S6 Ribo Prot S240 244) [5]: −21.74%
- Avg(Tuberin TSC2 Y1571) [5]: 11.86%
- Avg(p70 S6 Kinase S371 S394) [5]: −25.73%
- Avg(p70 S6 Kinase T389 T412) [5]: −20.86%

Reference: patent US20210038587A1, “METHODS AND COMPOSITIONS FOR TREATING NON-ERK MAPK PATHWAY INHIBITOR-RESISTANT CANCERS” (BIOMED VALLEY DISCOVERIES, INC., priority 2013, published 2021)
